{"source": "patent US20050131056A1", "about": "“2- thia-dibenzoazulenes as inhibitors of tumor necrosis factor production and intermediates for the preparation thereof” (Pliva-Istrazivacki Institut d.o.o., priority 2002, published 2005)", "system": "TNF-α and IL-1 secretion", "assay": "investigated assays, not specified which (TNF-α/IL-1 secretion in human PBMC, in mouse peritoneal macrophages, LPS-induced secretion in mice, writhing assay, LPS-induced shock)", "conditions": "at least two of five assays, not named; active = IC50 20 μM or lower (PBMC), 10 μM or lower (macrophages), 30% or more TNF-α inhibition at 10 mg/kg, analgetic activity as acetylsalicylic acid or better, survival 40% or more at 30 mg/kg", "description": "The inhibitory action of the present compounds upon TNF-α and IL-1 secretion was determined by the following in vitro and in vivo experiments:\nHuman peripheral blood mononuclear cells (PBMC) were prepared from heparinized whole blood after separating PBMC on Ficoll-Paque™Plus (Amersham-Pharmacia). To determine the TNF-α level, 3.5-5×10^4 cells were cultivated in a total volume of 200 μl for 18 to 24 hours on microtitre plates with a flat bottom (96 wells, Falcon) in RPMI 1640 medium, into which there were added 10% FBS (Fetal Bovine Serum, Biowhittaker) previously inactivated at 54° C./30 min, 100 units/ml of penicillin, […] of streptomycin and 20 mM HEPES (GIBCO). The cells were incubated at 37° C. in an atmosphere with 5% CO2 and 90% humidity. […] The IL-1 level was determined in an assay under the same conditions and with the same number of cells and the same concentration of stimuli stimulus by ELISA procedure (R&D Systems). The percentage of inhibition of TNF-α or IL-1 production was calculated by the equation: • % inhibition=[1−(TS-NC)/(PC-NC)]*100. […]\nIn order to obtain peritoneal macrophages, Balb/C mouse strain males, age 8 to 12 weeks, were injected i.p. with 300 μg of zymosan (SIGMA) dissolved in a phosphate buffer (PBS) in a total volume of 0.1 ml/mouse. […] The TNF-α level in the cell supernatant was determined by ELISA procedure (R&D Systems, Biosource). […]", "data": [{"compound": "O=Cc1scc2c1-c1ccccc1Sc1ccccc1-2", "note": "[Example 14, 2,8-Dithia-dibenzo[e,h]azulene-1-carbaldehyde]", "values": [{"measurement": "activity in the investigated assays", "value": "activity in at least two investigated assays"}]}]}
